This experiment addresses T1, Acetylcholinesterase (Mus musculus, UniProt P21836).
T1 sequence (P21836 whole entry): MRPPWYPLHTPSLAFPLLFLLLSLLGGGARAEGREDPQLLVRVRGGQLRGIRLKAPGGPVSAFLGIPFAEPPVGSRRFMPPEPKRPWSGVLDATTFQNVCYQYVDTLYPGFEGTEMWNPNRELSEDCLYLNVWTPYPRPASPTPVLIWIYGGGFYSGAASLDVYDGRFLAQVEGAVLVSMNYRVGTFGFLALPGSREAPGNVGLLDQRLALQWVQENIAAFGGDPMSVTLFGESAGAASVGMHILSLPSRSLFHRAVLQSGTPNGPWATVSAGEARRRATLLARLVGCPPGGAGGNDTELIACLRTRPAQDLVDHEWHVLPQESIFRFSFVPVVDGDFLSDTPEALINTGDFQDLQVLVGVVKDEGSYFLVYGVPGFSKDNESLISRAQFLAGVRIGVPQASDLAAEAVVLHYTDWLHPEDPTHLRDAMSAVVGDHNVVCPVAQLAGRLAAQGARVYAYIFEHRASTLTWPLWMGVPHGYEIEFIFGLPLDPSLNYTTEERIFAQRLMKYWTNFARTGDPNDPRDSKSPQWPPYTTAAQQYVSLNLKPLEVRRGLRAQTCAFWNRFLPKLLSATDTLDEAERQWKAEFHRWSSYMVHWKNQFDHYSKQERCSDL
Description: AChE Assay. The following applies: pH 7.6; 20 °C. The method, then:
The inactivation of AChEs was determined using a colorimetric assay [Ellman et al., Biochem. Pharmacol., 7:88-95]. […] DTNB solution and a solution of AChE yielding a 0.1 Abs unit/min rate in PBS (2.80 mL; pH 7.6) were placed in a cuvette at 20°C. To this solution was added either: (a) 10 μL of ACN as the control, or (b) 10 μL of ligand solution (10 mM in ACN). […] The final concentrations of the reactants during enzyme assay were: 0.33 mM DTNB, 0.59 mM ATCh-I, 0.58 mM NaHCO3, and 0.05 mM inhibitor.

The text below walks through data of BindingDB's records for doi:10.3109/14756360903027816 (The University of Montana, 2010).

Structures are written as SMILES.

As usually defined, the IC50 is the point on the concentration scale where inhibition reaches its midpoint. A higher IC50 goes with a need for much substance. `C#CCNS(=O)(=O)c1ccc(-c2c3ccc(=[N+](CC)CC)cc-3oc3cc(N(CC)CC)ccc23)c(S(=O)(=O)[O-])c1` [Lissamine propargyl sulfonamide (6)] showed an IC50 of 50 nM. Take `C#CCNS(=O)(=O)c1ccc(C2=c3cc4c5c(c3Oc3c2cc2c6c3CCCN6CCC2)CCC[N+]=5CCC4)c(S(=O)(=O)[O-])c1` [Texas Red propargyl sulfonamide (7)]: half-maximal inhibition (IC50) required 700 nM.
